Laboratory results reported in ChEMBL document CHEMBL1136235, “Synthesis and biological activity of piperazine-based dual MMP-13 and TNF-alpha converting enzyme inhibitors” (Bioorg Med Chem Lett, 2003).

How the values were obtained:
Collagenase 3 = Collagenase 3 (Homo sapiens, UniProt P45452); experiment: In vitro inhibition of matrix metalloprotease-13.
[1] = target: T1, Disintegrin and metalloproteinase domain-containing protein 17 (Homo sapiens, UniProt P78536); experiment: Inhibition of Tumor necrosis factor-alpha (TNF-alpha) release in human whole blood; assay type: functional, tissue-based
Interstitial collagenase = target: T2, Interstitial collagenase (Homo sapiens, UniProt P03956); experiment: In vitro inhibition of matrix metalloprotease-1.
T2 sequence (P03956 whole entry): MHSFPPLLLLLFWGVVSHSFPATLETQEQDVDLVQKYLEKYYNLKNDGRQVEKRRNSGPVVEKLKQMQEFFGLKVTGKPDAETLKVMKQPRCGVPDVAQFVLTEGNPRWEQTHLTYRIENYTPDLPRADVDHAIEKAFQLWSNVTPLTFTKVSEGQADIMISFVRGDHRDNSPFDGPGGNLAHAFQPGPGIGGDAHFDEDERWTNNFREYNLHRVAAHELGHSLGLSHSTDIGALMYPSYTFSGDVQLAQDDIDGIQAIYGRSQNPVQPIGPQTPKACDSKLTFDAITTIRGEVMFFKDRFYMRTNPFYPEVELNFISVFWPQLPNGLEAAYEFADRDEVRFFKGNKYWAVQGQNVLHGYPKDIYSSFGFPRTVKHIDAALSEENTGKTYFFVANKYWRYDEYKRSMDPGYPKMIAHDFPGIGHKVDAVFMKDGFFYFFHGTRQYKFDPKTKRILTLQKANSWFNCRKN

[2] = target: T1, Disintegrin and metalloproteinase domain-containing protein 17; experiment: Inhibition of human recombinant tumor necrosis factor-alpha converting enzyme.
[3] = Half life in rat i.v.; assay type: ADME, organism-based; settings: in vivo, iv
Rattus norvegicus [4] = experiment: Inhibition of TNF-alpha production in an acute rat LPS-induced model at the dose of 30 mg/kg; assay type: functional
[5] = Pharmacokinetic property (Vdss) in rat; assay type: ADME, organism-based; settings: in vivo, read-out: Vdss
[6] = (§1) Pharmacokinetic property (Clp) in rat; assay type: ADME, organism-based; settings: plasma, read-out: Clp
Rattus norvegicus [7] = species on record: Rattus norvegicus; experiment: Concentration required for TNF-alpha production in an acute rat LPS-induced model; assay type: functional
[8] = Half in rat i.v.; assay type: ADME, organism-based; settings: in vivo, iv
Rattus norvegicus [9] = species on record: Rattus norvegicus; experiment: as §1; assay type: ADME, organism-based; settings: in vivo

T1 sequence (P78536 whole entry, the tested form may be a part): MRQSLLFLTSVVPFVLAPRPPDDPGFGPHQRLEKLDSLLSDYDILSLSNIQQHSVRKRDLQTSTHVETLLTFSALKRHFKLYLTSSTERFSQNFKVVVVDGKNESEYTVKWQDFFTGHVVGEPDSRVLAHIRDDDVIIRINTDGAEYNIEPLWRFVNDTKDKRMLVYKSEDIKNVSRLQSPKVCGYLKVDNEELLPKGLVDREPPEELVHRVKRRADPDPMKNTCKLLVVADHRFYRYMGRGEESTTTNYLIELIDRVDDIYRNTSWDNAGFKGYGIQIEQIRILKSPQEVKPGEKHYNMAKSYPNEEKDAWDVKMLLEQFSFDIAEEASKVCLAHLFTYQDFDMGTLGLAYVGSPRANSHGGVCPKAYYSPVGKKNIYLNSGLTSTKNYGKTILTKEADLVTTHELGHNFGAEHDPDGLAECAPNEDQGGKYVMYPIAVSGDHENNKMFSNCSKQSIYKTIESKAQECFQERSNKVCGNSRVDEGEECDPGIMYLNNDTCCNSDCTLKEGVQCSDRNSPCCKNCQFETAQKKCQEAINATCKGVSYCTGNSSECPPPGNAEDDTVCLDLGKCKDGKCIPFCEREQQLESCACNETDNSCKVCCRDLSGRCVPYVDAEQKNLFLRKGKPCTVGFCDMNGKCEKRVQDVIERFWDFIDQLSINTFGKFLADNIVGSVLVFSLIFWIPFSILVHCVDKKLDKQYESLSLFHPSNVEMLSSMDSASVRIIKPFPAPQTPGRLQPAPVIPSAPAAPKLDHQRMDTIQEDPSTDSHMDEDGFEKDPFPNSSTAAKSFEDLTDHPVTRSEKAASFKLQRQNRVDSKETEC

SMILES	IC50 (Collagenase 3) [nM]	IC50 [1] [nM]	IC50 (Interstitial collagenase) [nM]	IC50 [2] [nM]	half-life [3] [min]	inhibition in vivo at 30 mg/kg (Rattus norvegicus [4]) [%]	Vd [5] [L/kg]	clearance [6] [mL/min/kg]	ED50 (Rattus norvegicus [7]) [mg/kg]	half-life [8] [min]	Clp (Rattus norvegicus [9]) [mL/min/kg]
CCOC(=O)N1CCN(S(=O)(=O)c2ccc(OCc3ccccc3C)cc2)[C@@H](C(=O)NO)[C@@H]1C	6	3000	1500	28	–	–	–	–	–	–	–
CC(=O)N1CCN(S(=O)(=O)c2ccc(OCc3cccnc3C)cc2)[C@@H](C(=O)NO)[C@@H]1C	8	800	3400	5	–	–	–	–	–	–	–
CC(=O)N1CCN(S(=O)(=O)c2ccc(OCc3ccccc3C(F)(F)F)cc2)[C@@H](C(=O)NO)[C@@H]1C	127	2000	10000	11	–	–	–	–	–	–	–
CC(=O)N1CCN(S(=O)(=O)c2ccc(OCc3ccnc4ccccc34)cc2)[C@@H](C(=O)NO)[C@@H]1C	17	300	830	–	–	–	–	–	–	–	–
CCc1ccccc1COc1ccc(S(=O)(=O)N2CCN(C(C)=O)[C@@H](C)[C@@H]2C(=O)NO)cc1	40	600	6700	7	–	–	–	–	–	–	–
Cc1ccc(S(=O)(=O)N2CCN(S(=O)(=O)c3ccc(OCc4ccccc4C)cc3)[C@@H](C(=O)NO)[C@@H]2C)cc1	–	26000	–	32	–	–	–	–	–	–	–
CC(=O)N1CCN(S(=O)(=O)c2ccc(OCc3cc(F)cc(F)c3)cc2)[C@@H](C(=O)NO)[C@@H]1C	20	1000	3800	6	–	–	–	–	–	–	–
C[C@@H]1NCCN(S(=O)(=O)c2ccc(OCc3ccccc3)cc2)[C@H]1C(=O)NO	11	18000	12000	–	–	–	–	–	–	–	–
Cc1ccccc1COc1ccc(S(=O)(=O)N2CCN(C(=O)Nc3ccccc3)[C@@H](C)[C@@H]2C(=O)NO)cc1	–	12000	2200	26	–	–	–	–	–	–	–
CC(=O)N1CCN(S(=O)(=O)c2ccc(OCc3cncc4ccccc34)cc2)[C@@H](C(=O)NO)[C@@H]1C	98	400	6400	–	–	–	–	–	–	–	–
Cc1ccccc1COc1ccc(S(=O)(=O)N2CCN[C@@H](C)[C@@H]2C(=O)NO)cc1	19	2000	12000	–	14.4	39	1.1	83	–	–	–
Cc1ccccc1COc1ccc(S(=O)(=O)N2CCN(Cc3ccccc3)[C@@H](C)[C@@H]2C(=O)NO)cc1	–	33000	17000	68	–	–	–	–	–	–	–
CC[C@H](C)[C@H](NC(=O)C(CC(C)C)[C@H](C(C)C)N(O)C=O)C(=O)Nc1ccccn1 (stereo partly specified)	7	–	19	40	–	–	–	–	–	–	–
Cc1ccccc1COc1ccc(S(=O)(=O)N2CCN(C)[C@@H](C)[C@@H]2C(=O)NO)cc1	–	33000	–	31	–	–	–	–	–	–	–
CC(=O)N1CCN(S(=O)(=O)c2ccc(OCc3cc(F)ccc3C)cc2)[C@@H](C(=O)NO)[C@@H]1C	7	1000	1900	7	–	–	–	–	–	–	–
C#CCOc1ccc(S(=O)(=O)N(C)c2c(C)cc(Br)cc2C(=O)NO)cc1	113	–	52	–	–	–	–	–	–	–	–
CC(=O)N1CCN(S(=O)(=O)c2ccc(OCc3ccccc3C)cc2)[C@@H](C(=O)NO)[C@@H]1C	–	1000	–	6	16.2	–	0.6	54	17	–	–
COC(=O)N1CCN(S(=O)(=O)c2ccc(OCc3ccccc3C)cc2)[C@@H](C(=O)NO)[C@@H]1C	4	2000	1500	14	–	–	–	–	–	–	–
Cc1ccccc1COc1ccc(S(=O)(=O)N2CCN(C(=O)NC(C)C)[C@@H](C)[C@@H]2C(=O)NO)cc1	4	3000	1400	34	–	–	–	–	–	–	–
CC(=O)N1CCN(S(=O)(=O)c2ccc(OCc3ccc(F)cc3)cc2)[C@@H](C(=O)NO)[C@@H]1C	3	2000	1700	6	–	–	–	–	–	–	–
Cc1ccccc1COc1ccc(S(=O)(=O)N2CCN(S(C)(=O)=O)[C@@H](C)[C@@H]2C(=O)NO)cc1	4	1000	1300	6	–	55	2.1	–	–	12.6	98
